Test results as given in ChEMBL document CHEMBL3880423, “Benzamide derivatives as histone deacetylase inhibitors with potent differentiation and anti-proliferation activity” (2009).
Activity calls are given as the source filed them.

Key:
Format in all cases: cell-based
[1] = target: T1, Estrogen receptor (Homo sapiens) (UniProt P03372); test: Activation of ERalpha (unknown origin) expressed in human U2OS cells at 1 uM in presence of 0.01 uM E2 incubated for 24 hrs by luciferase reporter gene assay
T1 sequence (whole entry): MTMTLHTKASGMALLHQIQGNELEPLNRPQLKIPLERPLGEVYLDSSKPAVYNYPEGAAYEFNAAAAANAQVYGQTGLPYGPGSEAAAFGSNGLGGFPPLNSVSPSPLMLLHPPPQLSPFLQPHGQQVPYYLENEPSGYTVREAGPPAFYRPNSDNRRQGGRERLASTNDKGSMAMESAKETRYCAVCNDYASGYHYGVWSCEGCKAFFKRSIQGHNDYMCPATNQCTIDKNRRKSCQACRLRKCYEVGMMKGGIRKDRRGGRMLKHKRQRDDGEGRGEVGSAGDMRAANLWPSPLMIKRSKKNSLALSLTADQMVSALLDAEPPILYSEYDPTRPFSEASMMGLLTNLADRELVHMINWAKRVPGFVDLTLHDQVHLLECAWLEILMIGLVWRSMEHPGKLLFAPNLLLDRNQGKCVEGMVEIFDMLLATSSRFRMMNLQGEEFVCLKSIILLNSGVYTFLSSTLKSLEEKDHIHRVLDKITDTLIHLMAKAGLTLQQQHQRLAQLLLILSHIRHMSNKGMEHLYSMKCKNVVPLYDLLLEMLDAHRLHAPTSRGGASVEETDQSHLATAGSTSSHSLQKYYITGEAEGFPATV

[2] = target: T2, Glucocorticoid receptor (Homo sapiens) (UniProt P04150); test: Activation of glulcocorticoid receptor (unknown origin) expressed in human U2OS cells at 1 uM incubated for 24 hrs by luciferase reporter gene assay
T2 sequence (whole entry): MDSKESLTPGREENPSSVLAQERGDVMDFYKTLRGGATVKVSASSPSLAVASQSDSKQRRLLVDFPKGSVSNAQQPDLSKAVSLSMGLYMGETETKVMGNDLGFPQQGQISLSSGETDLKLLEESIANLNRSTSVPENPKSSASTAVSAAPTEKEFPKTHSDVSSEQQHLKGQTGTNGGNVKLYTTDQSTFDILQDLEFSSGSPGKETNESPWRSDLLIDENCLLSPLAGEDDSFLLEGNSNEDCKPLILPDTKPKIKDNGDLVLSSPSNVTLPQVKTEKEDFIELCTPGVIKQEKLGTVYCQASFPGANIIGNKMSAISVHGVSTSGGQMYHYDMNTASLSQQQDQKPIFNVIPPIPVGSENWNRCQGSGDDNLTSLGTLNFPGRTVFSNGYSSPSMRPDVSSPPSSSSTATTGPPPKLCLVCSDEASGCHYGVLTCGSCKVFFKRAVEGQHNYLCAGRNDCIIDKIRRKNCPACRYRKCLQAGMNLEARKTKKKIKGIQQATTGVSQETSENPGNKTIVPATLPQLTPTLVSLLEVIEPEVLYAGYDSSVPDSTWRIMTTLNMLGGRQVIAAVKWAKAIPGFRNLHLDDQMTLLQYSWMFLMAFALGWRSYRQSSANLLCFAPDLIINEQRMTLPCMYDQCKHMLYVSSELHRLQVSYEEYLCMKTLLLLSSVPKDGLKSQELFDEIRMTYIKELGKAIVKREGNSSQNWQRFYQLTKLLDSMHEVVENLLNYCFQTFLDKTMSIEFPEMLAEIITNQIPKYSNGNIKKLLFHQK

[3] = target: Estrogen receptor beta (Homo sapiens) (UniProt Q92731); test: Activation of ERbeta (unknown origin) expressed in human U2OS cells at 1 uM in presence of 0.01 uM E2 incubated for 24 hrs by luciferase reporter gene assay
Chain of Estrogen receptor beta (Homo sapiens) (Q92731 whole entry): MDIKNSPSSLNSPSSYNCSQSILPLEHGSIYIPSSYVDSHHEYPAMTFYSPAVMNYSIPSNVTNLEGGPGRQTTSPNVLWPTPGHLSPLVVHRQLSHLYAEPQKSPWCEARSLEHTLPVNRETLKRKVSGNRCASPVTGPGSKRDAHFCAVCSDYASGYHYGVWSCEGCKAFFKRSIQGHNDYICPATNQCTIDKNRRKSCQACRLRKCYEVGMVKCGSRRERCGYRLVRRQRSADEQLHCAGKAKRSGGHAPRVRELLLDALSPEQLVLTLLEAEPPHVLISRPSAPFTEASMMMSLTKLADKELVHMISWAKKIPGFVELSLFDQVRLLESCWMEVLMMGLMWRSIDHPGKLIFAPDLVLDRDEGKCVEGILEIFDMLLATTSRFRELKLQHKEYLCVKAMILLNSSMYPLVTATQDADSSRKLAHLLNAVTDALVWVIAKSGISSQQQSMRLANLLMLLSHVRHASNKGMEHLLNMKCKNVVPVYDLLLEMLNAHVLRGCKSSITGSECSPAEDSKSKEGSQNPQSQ

[4] = target: T3, Peroxisome proliferator-activated receptor gamma (Homo sapiens) (UniProt P37231); test: Activation of PPARG (unknown origin) expressed in human U2OS cells at 1 uM in presence of 10 uM rosiglitazone incubated for 24 hrs by luciferase reporter gene assay
T3 sequence (whole entry): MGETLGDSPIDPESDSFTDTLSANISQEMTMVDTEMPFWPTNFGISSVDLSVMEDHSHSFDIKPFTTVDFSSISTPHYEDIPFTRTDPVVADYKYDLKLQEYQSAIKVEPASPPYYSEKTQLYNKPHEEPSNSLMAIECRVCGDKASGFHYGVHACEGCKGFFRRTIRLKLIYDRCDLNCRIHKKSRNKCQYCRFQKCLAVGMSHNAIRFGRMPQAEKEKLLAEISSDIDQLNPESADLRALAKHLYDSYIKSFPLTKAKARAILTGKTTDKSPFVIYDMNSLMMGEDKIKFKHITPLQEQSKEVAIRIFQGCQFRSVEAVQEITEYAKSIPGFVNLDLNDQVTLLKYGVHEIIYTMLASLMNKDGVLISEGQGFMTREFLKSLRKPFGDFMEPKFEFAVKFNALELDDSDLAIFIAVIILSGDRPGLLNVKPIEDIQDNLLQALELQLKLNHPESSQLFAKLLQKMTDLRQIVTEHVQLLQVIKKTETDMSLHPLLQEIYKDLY

[5] = target: T3, Peroxisome proliferator-activated receptor gamma (Homo sapiens); test: Activation of PPARG (unknown origin) expressed in human U2OS cells at 1 uM incubated for 24 hrs by luciferase reporter gene assay
[6] = target: T1, Estrogen receptor (Homo sapiens); test: Activation of ERalpha (unknown origin) expressed in human U2OS cells at 1 uM incubated for 24 hrs by luciferase reporter gene assay
[7] = target: Estrogen receptor beta (Homo sapiens) (UniProt Q92731); test: Activation of ERbeta (unknown origin) expressed in human U2OS cells at 1 uM incubated for 24 hrs by luciferase reporter gene assay
[8] = target: T2, Glucocorticoid receptor (Homo sapiens); test: Activation of glulcocorticoid receptor (unknown origin) expressed in human U2OS cells at 1 uM in presence of 0.1 uM dexamethasone incubated for 24 hrs by luciferase reporter gene assay
[9] = target: T1, Estrogen receptor (Homo sapiens); test: Activation of ERalpha (unknown origin) expressed in human U2OS cells at 0.2 uM in presence of 0.01 uM E2 incubated for 24 hrs by luciferase reporter gene assay
[10] = target: T2, Glucocorticoid receptor (Homo sapiens); test: Activation of glulcocorticoid receptor (unknown origin) expressed in human U2OS cells at 0.2 uM in presence of 0.1 uM dexamethasone incubated for 24 hrs by luciferase reporter gene assay
[11] = target: T1, Estrogen receptor (Homo sapiens); test: Activation of ERalpha (unknown origin) expressed in human U2OS cells at 0.2 uM incubated for 24 hrs by luciferase reporter gene assay
[12] = target: Estrogen receptor beta (Homo sapiens) (UniProt Q92731); test: Activation of ERbeta (unknown origin) expressed in human U2OS cells at 0.2 uM incubated for 24 hrs by luciferase reporter gene assay
[13] = target: T2, Glucocorticoid receptor (Homo sapiens); test: Activation of glulcocorticoid receptor (unknown origin) expressed in human U2OS cells at 0.2 uM incubated for 24 hrs by luciferase reporter gene assay
[14] = target: T3, Peroxisome proliferator-activated receptor gamma (Homo sapiens); test: Activation of PPARG (unknown origin) expressed in human U2OS cells at 0.2 uM incubated for 24 hrs by luciferase reporter gene assay
[15] = target: Estrogen receptor beta (Homo sapiens) (UniProt Q92731); test: Activation of ERbeta (unknown origin) expressed in human U2OS cells at 0.2 uM in presence of 0.01 uM E2 incubated for 24 hrs by luciferase reporter gene assay
[16] = target: T3, Peroxisome proliferator-activated receptor gamma (Homo sapiens); test: Activation of PPARG (unknown origin) expressed in human U2OS cells at 0.2 uM in presence of 10 uM rosiglitazone incubated for 24 hrs by luciferase reporter gene assay

Measured: Activity

Nc1cc(F)ccc1NC(=O)c1ccc(CNC(=O)/C=C/c2cccnc2)cc1
active: [1] | [2] | [3] | [4] | [5] | [6] | [7] | [8]

Nc1ccccc1NC(=O)c1ccc(CNC(=O)OCc2cccnc2)cc1
active: [1] | [2] | [3] | [4] | [5] | [6] | [7] | [8]

CC(/C=C/C(=O)NO)=C\[C@@H](C)C(=O)c1ccc(N(C)C)cc1
active: [9] | [10] | [11] | [12] | [13] | [14] | [15] | [16]
